Measurements: US20040152903A1, “6-chloro-3-pyridylmethylpropylamine derivatives, preparation process thereof and bactericides” (priority 2004, published 2004)

Legend:
[1] = test system: cucumber powdery mildew; assay: Test of control effect on cucumber powdery mildew; format: in vivo; conditions: wettable powder 100 mg/l, 100 liters/10 a, cucumber (Sagamihanpakufushinari), examined 9th to 14th day after inoculation
Description: (Test of Control Effect on Cucumber Powdery Mildew) The wettable powders formulated by using each of the compounds I-1 to 27 according to the present invention and the comparative compounds (a) to (d), (m-1) and (m-3) were each diluted and suspended with water to a predetermined concentration (100 mg/l), the suspension was sprinkled over the first to the second leaf period cucumbers (variety: “[…]”) cultivated by using a square plastic pot (size: 6.4 cm×6.4 cm) in a rate of 100 liters/10 a (ares). After the sprinkled leaves were air-dried, the spores were inoculated over the leaves by sprinkling the same with a brush from an infected leaf, a disease was contracted in a glass house (temperature: 20 to 24° C., relative humidity: 20 to 70 RH). On the 9th to 14th day after the inoculation, the infection degree was examined according to the following scale and the control value of each compound was calculated by the following calculation equation 2: (Examination Scale) [table]

[2] = test system: Botrytis cinerea; assay: Antifungal activity test (PDA plate, hypha extension inhibition); format: cell-based; conditions: 1.6 ppm in PDA culture medium
Description: (Antifungal Activity Test against Various Pathogenic Fungi) For each of the compounds I-1 to 27 of the present invention and the comparative compounds (a) to (d), (m-1) and (m-3), 20 mg was weighed and dissolved in 2 ml of dimethylsulfoxide, and a double dilution row in 10 steps was prepared by further using dimethylsulfoxide. A 0.6 ml portion of these solutions was each added to 60 ml of a PDA culture medium (potato-dextrose-agar culture medium) at about 60° C., they were well mixed in a 100 ml Erlenmeyer flask, the solution was poured into a schale and was solidified, the plate culture media containing the compounds according to the present invention with final concentrations of 100, 50.0, 25.0, 12.5, 6.3, 3.2, 1.6, 0.8, 0.4 and 0.2 mg/l were prepared. On the other hand, the specimen bacteria cultured on the plate culture media beforehand was punched by a 4 mm diameter cork borer, and was inoculated on the plate culture media containing the aforementioned chemicals. After the inoculation, the bacteria were cultured at the optimum growth temperature of each bacterium for 1 to 7 days (for this optimum growth temperature, LIST OF CULTURES 1996 Microorganisms 10th edition published by Fermentation Research Institute (Foundation) can be referred to.), and the growth of the bacteria was measured by the diameter of a colony. […] R=100(dc−dt)/dc (Equation 3) [wherein each symbol is shown as follows: R=Hypha extension inhibition rate (%), dc=Diameter of colony on no-treated plate, dt=Diameter of colony on chemical-treated plate.] The results obtained above was evaluated in 5 steps in accordance with the following examination scale. <Growth Inhibition> 5: Hypha extension inhibition rate of 90% or more 4: Hypha extension inhibition rate of from 70% to less than 90% 3: […] 2: […] In addition, the abbreviations in Table 10 are as follows: B.c: Botrytis cinerea

[3] = test system: wheat powdery mildew; assay: Permeable mobility fungicidal effect test in leaf section of wheat powdery mildew; format: in vivo; conditions: length of non-contracted area relative to compound (m-2); 200 mg/l, 0.5 μl applied to wheat leaf (Abukumawase)
Description: (Permeable Mobility Fungicidal Effect Test in Leaf Section of Wheat Powdery Mildew) In the test example 4, permeable mobility fungicidal effect test was performed on the leaf section of wheat powdery mildew with regard to the compounds I-1 to 27 according to the present invention and the comparative compounds (a) to (d), and (m-1) to (m-3) with the method described later. <Test Method> The compound in the form of a wettable powder obtained by Formulation 2 or the like was diluted and suspended with water to a predetermined concentration (200 mg/l), and 0.5 μl of the suspension was applied to a 2 to 3 cm leaf portion from the root of the three leaves of the 4th to 4.5th leaf period wheat (variety: Abukumawase) cultured by using a square plastic pot (size: 6.4 cm×6.4 cm). After these wheat leaves were subject to still standing in a glass house (temperature: 20 to 24° C., relative humidity: 20 to 70 RH) for one day, the spores of wheat powdery mildew were inoculated over the leaves by sprinkling the same with a brush from an infected leaf, a disease was contracted in the same glass house. The length of a non-contracted area generated from the applied portion to the direction of the leaf top was measured, and a relative mobility to the compound (m-2) was calculated with the following calculation […] by using the comparative compound (m-2) as a standard compound. Relative mobility=(Length of non-contracted area in each chemical section (cm)/Length of non-contracted area of compound (m-2) (cm)) (Equation 4)

[4] = test system: wheat powdery mildew; assay: Test of control effect on wheat powdery mildew; format: in vivo; parameters: Control Value: scale not given here; conditions: wettable powder 125 mg/l, 100 liters/10 a, wheat seedlings (Nourin 64), examined 9th to 14th day after inoculation
Description: (Test of Control Effect on Wheat Powdery Mildew) Wettable powders were prepared from compounds of the present invention I-1 to I-27 and comparative compounds (a) to (d), (m-1) and (m-3). The obtained wettable powder was diluted and suspended with water to provide the predetermined concentration (125 mg/l), and was sprinkled onto seedlings of wheat (variety: “Nourin 64”) at the first to the second leaf period which were cultivated using square plastic pots (size: 6.4 cm×6.4 cm) in a rate of 100 liters/10 a (ares). After drying the sprinkled leaves with air, a suspension of wheat powdery mildew spores taken from infected leaves was inoculated by spraying onto the sprinkled leaves. They were supervised in a green house (temperature: 20 to 24° C., relative humidity: 20 to 70 RH). On the 9th to 14th day after the inoculation, the infection degree was examined according to the following scale and the control value of each compound was calculated by the following calculation equation 1. [table]

Structure (SMILES) | Control Value [1] | Growth Inhibition B.c (1.6) [2] | Relative Mobility [3] | Control Value [4] | pest or weed control at 100 µg/mL ([1]; Cucumis sativus) [%] | inhibition at 1.6 ppm ([2]; read-out: Growth Inhibition B.c (1.6)) [%] | pest or weed control at 125 µg/mL ([4]; Triticum aestivum) [%]
CC(Cc1ccc2c(c1)OC(Cl)(Cl)O2)CN(C)Cc1ccc(Cl)nc1 (stereo not drawn) [Compound I-25] | 100 | 4 (Hypha extension inhibition rate of from 70% to less than 90%) | 3 | 100 |  |  | 
CC(Cc1cc(Cl)c(F)c(Cl)c1)CN(C)Cc1ccc(Cl)nc1 (stereo not drawn) [Compound I-22] | 100 | 4 (Hypha extension inhibition rate of from 70% to less than 90%) | 3 | 100 |  |  | 
CC(Cc1cccc(C(F)(F)F)c1F)CN(C)Cc1ccc(Cl)nc1 (stereo not drawn) [Compound I-7] | 90 | 4 (Hypha extension inhibition rate of from 70% to less than 90%) | 5 | 100 |  |  | 
CC(Cc1ccc(Cl)c(OC(F)(F)F)c1)CN(C)Cc1ccc(Cl)nc1 (stereo not drawn) [Compound I-15] | 100 | 4 (Hypha extension inhibition rate of from 70% to less than 90%) | 9 | 100 |  |  | 
CC(Cc1ccc(OC(F)F)cc1)CN(C)Cc1ccc(Cl)nc1 (stereo not drawn) [Compound I-13] | 100 | 4 (Hypha extension inhibition rate of from 70% to less than 90%) | 9 | 100 |  |  | 
CC(Cc1ccc(C(F)(F)F)cc1C(F)(F)F)CN(C)Cc1ccc(Cl)nc1 (stereo not drawn) [Compound I-2] | 100 | 4 (Hypha extension inhibition rate of from 70% to less than 90%) | 3 | 100 |  |  | 
CC(Cc1c(F)c(F)c(F)c(F)c1F)CN(C)Cc1ccc(Cl)nc1 (stereo not drawn) [Compound I-23] | 70 | 4 (Hypha extension inhibition rate of from 70% to less than 90%) | 4 | 100 |  |  | 
CC(Cc1ccc(OC(F)(F)Br)c(Cl)c1)CN(C)Cc1ccc(Cl)nc1 (stereo not drawn) [Compound I-19] | 100 | 4 (Hypha extension inhibition rate of from 70% to less than 90%) | 8 | 100 |  |  | 
CC(Cc1c(F)c(F)c(C(F)(F)F)c(F)c1F)CN(C)Cc1ccc(Cl)nc1 (stereo not drawn) [Compound I-11] | 100 | 4 (Hypha extension inhibition rate of from 70% to less than 90%) | 5 | 90 |  |  | 
CC(Cc1ccc2c(c1)C(F)(F)OC(F)(F)O2)CN(C)Cc1ccc(Cl)nc1 (stereo not drawn) [Compound I-27] | 100 | 4 (Hypha extension inhibition rate of from 70% to less than 90%) | 3 | 100 |  |  | 
CC(Cc1ccc(OC(F)(F)C(F)C(F)(F)F)cc1)CN(C)Cc1ccc(Cl)nc1 (stereo not drawn) [Compound I-14] | 100 | 4 (Hypha extension inhibition rate of from 70% to less than 90%) | 7 | 100 |  |  | 
CC(Cc1ccc(OC(F)(F)F)c(Cl)c1)CN(C)Cc1ccc(Cl)nc1 (stereo not drawn) [Compound I-18] | 100 | 5 (Hypha extension inhibition rate of 90% or more) | 8 | 100 |  |  | 
CC(Cc1cc(C(F)(F)F)ccc1C(F)(F)F)CN(C)Cc1ccc(Cl)nc1 (stereo not drawn) [Compound I-3] | 100 | 4 (Hypha extension inhibition rate of from 70% to less than 90%) | 3 | 90 |  |  | 
CC(Cc1ccc2c(c1)OC(F)(F)C(F)(F)O2)CN(C)Cc1ccc(Cl)nc1 (stereo not drawn) [Compound I-26] | 100 | 4 (Hypha extension inhibition rate of from 70% to less than 90%) | 3 | 100 |  |  | 
CC(Cc1cc(C(F)F)cc(C(F)(F)F)c1)CN(C)Cc1ccc(Cl)nc1 (stereo not drawn) [Compound I-4] | 80 | 4 (Hypha extension inhibition rate of from 70% to less than 90%) | 3 | 100 |  |  | 
COc1cccc(CC(C)CN(C)Cc2ccc(Cl)nc2)c1 (stereo not drawn) [(m-3), 6-chloro-N-[3-(3-methoxyphenyl)-2-methylpropyl]-N-methyl-3-pyridylmethylamine, reference compound] |  |  |  |  | 0 | < 20 | 0
CC(Cc1cc(F)cc(C(F)(F)F)c1)CN(C)Cc1ccc(Cl)nc1 (stereo not drawn) [Compound I-6] | 100 | 4 (Hypha extension inhibition rate of from 70% to less than 90%) | 5 | 100 |  |  | 
CC(Cc1cc(C(F)(F)F)cc(C(F)(F)F)c1)CN(C)Cc1ccc(Cl)nc1 (stereo not drawn) [Compound I-1] | 100 | 4 (Hypha extension inhibition rate of from 70% to less than 90%) | 3 | 100 |  |  | 
CC(Cc1cc(Cl)cc(C(F)(F)F)c1)CN(C)Cc1ccc(Cl)nc1 (stereo not drawn) [Compound I-5] | 100 | 4 (Hypha extension inhibition rate of from 70% to less than 90%) | 3 | 100 |  |  | 
